Square brackets hold non-standard residues; d marks the D form. Peptide text beside a SMILES is read from it. * marks the point of attachment. Isonicotinoyl = O=C(c1ccncc1)*; Morpholide = C1CN(*)CCO1; PhAc = O=C(Cc1ccccc1)*; NHBn = c1ccc(CN*)cc1
biological target: VLA-4 (Homo sapiens, UniProt P05556+P13612); experiment: cell-based; format: cell-based; parameters: host or cells: Jurkat (human T lymphoblastic line); conditions: not given
Protocol: Binding inhibition is measured here as a concentration of peptide that inhibits one-half the binding between a standard number of Jurkat cells and a standard amount of CS-1 peptide bound to the surface of a microtiter plate well. Those concentrations are conveniently expressed as IC50 values, smaller numbers indicating a lower concentration required to inhibit 50 percent binding and therefore greater potency. Further specifics of this assay are provided hereinafter.
Jurkat cells (ATCC TIB 152), a human T lymphoblastic line, labeled with ^51 chromium were used to assay in vitro binding inhibition provided by various peptides discussed herein.
The plates were prepared as follows: The 25-mer CS-1 peptide (SEQ ID NO:1) dissolved at 0.5-1 μg/ml in a buffer of 0.1M NaHCO3 at pH 9.5 that also contained 10 μg/ml of bovine serum albumin (BSA) or a conjugate of the CS-1 peptide linked to ovalbumin (CS-1-OVA) dissolved at 1-2.5 μg/ml in the same buffer was used as the substrate. Each well of the microtiter plates was coated with 50 μl of substrate or buffer alone for controls. The wells were permitted to dry out completely and were then rinsed twice with PBS at pH 7.4. Non-specific binding sites of each well were then blocked using 200 μl per well of RPMI/1 percent BSA for two hours at room temperature. Both solid phase-affixed substrates provided similar results.
Jurkat cells (3-5×10^6 cells) were placed into a 15 ml Falcon™ round-bottom tube with a cap. The tube was centrifuged, and the extra medium was then removed.
Two hundred microliters of a ^51 Cr labeling solution were added to the centrifuged cells and maintained in contact with the cells for 90-120 minutes in a warm room. This procedure typically provides about 50,000-100,000 cpm/well with about 80-100 percent cell viability. Longer contact times provide a greater amount of labeling but lower cell viability.
The labeled cells are washed with (i) complete medium, (ii) 1 mM EDTA/PBS and then (iii) RPM1/1 percent BSA free of serum components. The cells are centrifuged after each washing. The cells are finally resuspended in serum-free RPMI/1 percent BSA at a concentration of 1×10^6 viable cells/ml, which provides a concentration that is diluted by one-half in the assay.
Inhibitor peptides are prepared as stock solutions at 20 mg/ml in DMSO in 1.5 ml cryogenic screwcap vials, and were stored at -70° C. Using Flow™ round-bottom or V-bottom microtiter plates, the inhibitor peptides were prepared at twice the assay concentration in RPMI/1 percent BSA at 60 μl well.
Four initial dilutions were typically used.
The ^51 Cr-labeled cells (1×10^6 cells at 60 μl/well) were then admixed with the diluted peptide solutions. The admixtures were maintained at room temperature (about 22° C.) for 30 minutes.
One hundred microliters of each inhibitor peptide/cell admixture were transferred to the substrate-coated wells. This was done in triplicate for each dilution. The resulting plates were incubated for 30 minutes at 37° C. and then washed gently three times with RPMI/1 percent BSA at 200 μl/well. Binding was observed microscopically, particularly after the second wash.
The bound cells were then lysed by the addition of a 0.5 percent solution of sodium dodecylsulfate in water at 100 μ/l well. The resulting solutions were then processed for counting and calculation of IC50 values following usual procedures. Appropriate positive and negative controls were used with each plate so that the results of separate assays could be normalized and compared.
The data of Table 1 are so normalized.

Sequence of VLA-4 (P13612 34-1032): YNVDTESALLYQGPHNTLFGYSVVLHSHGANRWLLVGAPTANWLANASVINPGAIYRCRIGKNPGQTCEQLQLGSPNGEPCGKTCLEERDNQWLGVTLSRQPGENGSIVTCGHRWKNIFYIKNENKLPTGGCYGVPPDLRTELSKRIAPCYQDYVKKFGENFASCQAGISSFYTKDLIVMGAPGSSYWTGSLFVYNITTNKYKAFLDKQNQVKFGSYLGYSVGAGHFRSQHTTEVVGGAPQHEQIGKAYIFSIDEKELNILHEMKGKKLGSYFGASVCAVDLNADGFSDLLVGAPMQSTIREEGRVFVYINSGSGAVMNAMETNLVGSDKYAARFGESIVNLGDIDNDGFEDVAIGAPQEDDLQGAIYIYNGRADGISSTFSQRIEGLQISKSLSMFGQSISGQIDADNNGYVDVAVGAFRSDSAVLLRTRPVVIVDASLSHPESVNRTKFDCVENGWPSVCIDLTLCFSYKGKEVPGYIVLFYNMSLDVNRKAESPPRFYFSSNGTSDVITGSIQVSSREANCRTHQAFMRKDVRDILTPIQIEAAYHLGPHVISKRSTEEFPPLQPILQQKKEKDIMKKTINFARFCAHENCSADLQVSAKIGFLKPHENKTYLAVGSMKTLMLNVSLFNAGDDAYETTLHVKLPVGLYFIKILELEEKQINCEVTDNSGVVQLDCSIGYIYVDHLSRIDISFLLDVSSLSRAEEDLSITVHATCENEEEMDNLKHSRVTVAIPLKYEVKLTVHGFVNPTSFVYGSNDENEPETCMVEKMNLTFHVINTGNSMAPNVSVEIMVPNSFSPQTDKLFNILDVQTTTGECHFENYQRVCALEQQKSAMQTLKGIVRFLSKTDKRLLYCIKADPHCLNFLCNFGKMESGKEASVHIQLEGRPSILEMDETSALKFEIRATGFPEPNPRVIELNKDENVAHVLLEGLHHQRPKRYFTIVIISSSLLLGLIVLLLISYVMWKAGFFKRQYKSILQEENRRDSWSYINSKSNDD
Sequence of VLA-4 (P05556 21-798): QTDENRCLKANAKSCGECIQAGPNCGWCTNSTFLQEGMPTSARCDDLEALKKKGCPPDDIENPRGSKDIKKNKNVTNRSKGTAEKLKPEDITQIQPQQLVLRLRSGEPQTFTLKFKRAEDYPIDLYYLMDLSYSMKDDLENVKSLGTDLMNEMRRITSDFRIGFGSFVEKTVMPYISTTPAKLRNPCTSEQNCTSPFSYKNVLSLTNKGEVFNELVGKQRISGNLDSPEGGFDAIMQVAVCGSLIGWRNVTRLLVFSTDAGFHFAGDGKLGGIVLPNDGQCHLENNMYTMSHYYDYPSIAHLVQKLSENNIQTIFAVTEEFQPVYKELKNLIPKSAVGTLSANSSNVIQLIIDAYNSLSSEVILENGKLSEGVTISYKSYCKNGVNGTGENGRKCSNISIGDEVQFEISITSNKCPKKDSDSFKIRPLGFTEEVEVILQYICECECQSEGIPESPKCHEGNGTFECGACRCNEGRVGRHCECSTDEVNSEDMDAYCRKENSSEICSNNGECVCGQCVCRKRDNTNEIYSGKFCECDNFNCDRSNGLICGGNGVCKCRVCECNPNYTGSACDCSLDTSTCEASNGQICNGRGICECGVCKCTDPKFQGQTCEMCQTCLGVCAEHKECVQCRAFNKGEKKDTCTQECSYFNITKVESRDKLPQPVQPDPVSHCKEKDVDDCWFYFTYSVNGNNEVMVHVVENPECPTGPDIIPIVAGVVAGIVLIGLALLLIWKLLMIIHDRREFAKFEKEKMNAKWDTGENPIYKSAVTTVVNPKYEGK

RELATIVE POTENCY (relative peptide inhibition of VLA-4 binding CS-1)	Structure (SMILES)
656	CC(C)C[C@H](NC(=O)c1ccncc1)C(=O)N[C@@H](CC(=O)O)C(=O)N[C@@H](Cc1ccccc1)C(=O)N1CCC[C@@H]1C(N)=O [X L D F p pyridine-4-carbonyl amide] (Isonicotinoyl-LDF[dP]-NH2)
1	CC(C)C[C@H](NC(=O)c1cccc2ccccc12)C(=O)N[C@@H](CC(=O)O)C(=O)N[C@H](C(=O)N1CCC[C@@H]1C(N)=O)C(C)C [X L D V p 1-naphthoyl amide]
9	Cc1cccc(C(=O)N[C@@H](CC(C)C)C(=O)N[C@@H](CC(=O)O)C(=O)N[C@H](C(=O)N2CCC[C@@H]2C(N)=O)C(C)C)c1C [X L D V p 2,3-dimethylbenzoyl amide]
5	Cc1cccc(C)c1C(=O)N[C@@H](CC(C)C)C(=O)N[C@@H](CC(=O)O)C(=O)N[C@H](C(=O)N1CCC[C@@H]1C(N)=O)C(C)C [X L D V p 2,6-dimethylbenzoyl amide]
1	CC(C)C[C@H](NC(=O)c1ccc2ccccc2c1)C(=O)N[C@@H](CC(=O)O)C(=O)N[C@H](C(=O)N1CCC[C@@H]1C(N)=O)C(C)C [X L D V p 2-naphthoyl amide]
8	Cc1ccc(C(=O)N[C@@H](CC(C)C)C(=O)N[C@@H](CC(=O)O)C(=O)N[C@H](C(=O)N2CCC[C@@H]2C(N)=O)C(C)C)cc1C [X L D V p 3,4-dimethylbenzoyl amide]
3	CCC(C)CC(=O)N[C@@H](CC(C)C)C(=O)N[C@@H](CC(=O)O)C(=O)N[C@H](C(=O)N1CCC[C@@H]1C(N)=O)C(C)C (stereo partly shown) [X L D V p 3-methylvaleroyl amide]
3	CC(C)CCC(=O)N[C@@H](CC(C)C)C(=O)N[C@@H](CC(=O)O)C(=O)N[C@H](C(=O)N1CCC[C@@H]1C(N)=O)C(C)C [X L D V p 4-methylvaleroyl amide]
1	CC(C)C[C@H](NC(=O)C12CC3CC(CC(C3)C1)C2)C(=O)N[C@@H](CC(=O)O)C(=O)N[C@H](C(=O)N1CCC[C@@H]1C(N)=O)C(C)C [X L D V p adamantanecarbonyl amide]
2	CC(C)C[C@H](NC(=O)CC1CCCCC1)C(=O)N[C@@H](CC(=O)O)C(=O)N[C@H](C(=O)N1CCC[C@@H]1C(N)=O)C(C)C [X L D V p cyclohexaneacetyl amide]
5	CC(C)C[C@H](NC(=O)C1CCCCC1)C(=O)N[C@@H](CC(=O)O)C(=O)N[C@H](C(=O)N1CCC[C@@H]1C(N)=O)C(C)C [X L D V p cyclohexanecarbonyl amide]
1	CC(C)C[C@H](NC(=O)CCC1CCCCC1)C(=O)N[C@@H](CC(=O)O)C(=O)N[C@H](C(=O)N1CCC[C@@H]1C(N)=O)C(C)C [X L D V p cyclohexanepropionyl amide]
14	CC(C)C[C@H](NC(=O)CCc1ccccc1)C(=O)N[C@@H](CC(=O)O)C(=O)N[C@H](C(=O)N1CCC[C@@H]1C(N)=O)C(C)C [X L D V p phenylpropionyl amide]
140	CC(C)C[C@@H](C(=O)N[C@@H](CC(=O)O)C(=O)N[C@H](C(=O)N1CCC[C@@H]1C(N)=O)C(C)C)N1C(=O)c2ccccc2C1=O [X L D V p phthalimido amide]
8	CC(C)C[C@H](NC(=O)c1ccccn1)C(=O)N[C@@H](CC(=O)O)C(=O)N[C@H](C(=O)N1CCC[C@@H]1C(N)=O)C(C)C [X L D V p pyridine-2-carbonyl amide]
71	CC(C)C[C@H](NC(=O)c1cccnc1)C(=O)N[C@@H](CC(=O)O)C(=O)N[C@H](C(=O)N1CCC[C@@H]1C(N)=O)C(C)C [X L D V p pyridine-3-carbonyl amide]

Structure (SMILES)	RELATIVE POTENCY (relative peptide inhibition of VLA-4 binding CS-1)
CC(C)C[C@H](NC(=O)C=Cc1ccccc1)C(=O)N[C@@H](CC(=O)O)C(=O)N[C@H](C(=O)N1CCC[C@@H]1C(N)=O)C(C)C [X L D V p cinnamoyl amide]	1

same assay, conditions: normalized IC50 relative to standard peptide of SEQ ID NO:3 (=1); about one-tenth or less of the standard is assigned zero

Structure (SMILES)	RELATIVE POTENCY (relative peptide inhibition of VLA-4 binding CS-1)
CC(C)C[C@H](NC(=O)Cc1ccccc1)C(=O)N[C@@H](CC(=O)O)C(=O)N[C@@H](Cc1ccccc1)C(N)=O [X L D F phenylacetyl amide] (PhAc-Leu-Asp-Phe-NH2)	1
CC(C)C[C@H](NC(=O)Cc1ccccc1)C(=O)N[C@@H](CC(=O)O)C(=O)NCC(=O)N1CCOCC1 [X L D G Z phenylacetyl morpholinamide] (PhAc-Leu-Asp-Gly-Morpholide)	9
CC(C)C[C@H](NC(=O)Cc1ccccc1)C(=O)N[C@@H](CC(=O)O)C(=O)N[C@@H](CC(C)C)C(=O)N1CCOCC1 [X L D L Z phenylacetyl morpholinamide] (PhAc-Leu-Asp-Leu-Morpholide)	291
CC(C)C[C@H](NC(=O)Cc1ccccc1)C(=O)N[C@@H](CC(=O)O)C(=O)N[C@@H](CO)C(=O)N1CCC[C@@H]1C(N)=O [X L D S p phenylacetyl amide] (PhAc-LDS[dP]-NH2)	17
CC(C)C[C@H](NC(=O)c1ccccc1)C(=O)N[C@@H](CC(=O)O)C(=O)N[C@H](C(=O)N1CCC[C@H]1C(N)=O)C(C)C [X L D V P benzoyl amide]	37
CC(C)C[C@H](NC(=O)Cc1ccccc1)C(=O)N[C@@H](CC(=O)O)C(=O)N[C@H](C(=O)N1CCC[C@@H]1C(N)=O)C(C)C [X L D V p phenylacetyl amide, N-phenylacetyl-Leu-Asp-Val-D-Pro-NH2]	106
CC(C)C[C@H](NC(=O)Cc1ccccc1)C(=O)N[C@@H](CC(=O)O)C(=O)N[C@@H](Cc1c[nH]c2ccccc12)C(=O)N1CCC[C@@H]1C(N)=O [X L D W p phenylacetyl amide] (PhAc-LDW[dP]-NH2)	184
CC(C)C[C@H](NC(=O)Cc1ccccc1)C(=O)N[C@@H](CC(=O)O)C(=O)N[C@@H](Cc1ccc(O)cc1)C(=O)N1CCOCC1 [X L D Y Z phenylacetyl morpholinamide, N-phenylacetyl-Leu-Asp-Tyr-morpholinamide] (PhAc-Leu-Asp-Tyr-Morpholide)	313
CC(C)C[C@H](NC(=O)Cc1ccccc1)C(=O)N[C@@H](CC(=O)O)C(=O)N[C@@H](Cc1ccc(O)cc1)C(=O)N1CCC[C@@H]1C(N)=O [X L D Y p phenylacetyl amide, N-phenylacetyl-Leu-Asp-Tyr-D-Pro-NH2] (PhAc-LDY[dP]-NH2)	640
CC(C)C[C@H](NC(=O)Cc1ccccc1)C(=O)N[C@@H](CC(=O)O)C(=O)NNC(=O)OC(C)(C)C [X L D Z phenylacetyl N'-t-Boc-hydrazide]	2
CC(C)C[C@H](NC(=O)Cc1ccccc1)C(=O)N[C@@H](CC(=O)O)C(=O)NCc1ccccc1 [X L D Z phenylacetyl benzylamide] (PhAc-Leu-Asp-NHBn)	19
CC(C)C[C@H](NC(=O)Cc1ccccc1)C(=O)N[C@@H](CC(=O)O)C(=O)NC(c1ccccc1)c1ccccc1 [X L D Z phenylacetyl benzylhydrylamide]	3

same assay, conditions: normalized IC50 relative to standard peptide of SEQ ID NO:3 (=1); about one-tenth or less of the standard is assigned zero; listed as X L D V p benzoyl amide

Structure (SMILES)	RELATIVE POTENCY (relative peptide inhibition of VLA-4 binding CS-1)
CC(C)C[C@H](NC(=O)c1ccccc1)C(=O)N[C@@H](CC(=O)O)C(=O)N[C@H](C(=O)N1CCC[C@H]1C(N)=O)C(C)C [X L D V P benzoyl amide]	20

same assay, conditions: normalized IC50 relative to standard peptide of SEQ ID NO:3 (=1); about one-tenth or less of the standard is assigned zero; listed as X L D Y P phenylacetyl amide

Structure (SMILES)	RELATIVE POTENCY (relative peptide inhibition of VLA-4 binding CS-1)
CC(C)C[C@H](NC(=O)Cc1ccccc1)C(=O)N[C@@H](CC(=O)O)C(=O)N[C@@H](Cc1ccc(O)cc1)C(=O)N1CCC[C@@H]1C(N)=O [X L D Y p phenylacetyl amide, N-phenylacetyl-Leu-Asp-Tyr-D-Pro-NH2] (PhAc-LDY[dP]-NH2)	405

Source: patent US5688913A, “CS-1 peptidomimetics, compositions and methods of using the same” (Cytel Corporation, priority 1995, dated 1997)
